In ChEMBL document CHEMBL5120877, “Silybins are stereospecific regulators of the 20S proteasome” (Bioorg Med Chem, 2022):
The source made the active and inactive calls.

What was measured:
Conditions in all cases: filed as activator, time 90.0 min
Saccharomyces cerevisiae [1] = assay: Activation of chymotrypsin-like activity of yeast 20s proteasome using suc-LLVY-AMC as flurogenic substrate preincubated for 30 mins followed by substrate addition and measured after 1 hr by fluorescence assay
Saccharomyces cerevisiae [2] = assay: Activation of trypsin-like activity of yeast 20s proteasome using […] as flurogenic substrate preincubated for 30 mins followed by substrate addition and measured after 1 hr by fluorescence assay
Saccharomyces cerevisiae [3] = assay: Activation of PGPHL-peptidase activity of yeast 20s proteasome using […] as flurogenic substrate preincubated for 30 mins followed by substrate addition and measured after 1 hr by fluorescence assay

Measured: Activity

COc1cc([C@@H]2Oc3cc([C@H]4Oc5cc(O)cc(O)c5C(=O)[C@@H]4O)ccc3O[C@H]2CO)ccc1O
active: all assays above

COc1cc([C@H]2Oc3cc([C@H]4Oc5cc(O)cc(O)c5C(=O)[C@@H]4O)ccc3O[C@@H]2CO)ccc1O
active: all assays above
